Data as given in patent US12269816B2, “Benzothiophene compound, preparation method therefor and use thereof” (SICHUAN KELUN-BIOTECH BIOPHARMACEUTICAL CO., LTD., priority 2019, dated 2025).

Tested on: MC38 mouse colon cancer allograft tumor model
Assay: In vivo efficacy in the MC38 mouse colon cancer allograft tumor model
Conditions: 10 μg i.t.; for Tumor Volume, Day 0, Dosing side / Tumor Volume, Day 0, Non-dosing side: baseline at start of dosing; for Tumor Volume, Day 0, Dosing side / Tumor Volume, Day 0, Non-dosing side / Tumor Volume, Day 18, Dosing side / Tumor Volume, Day 18, Non-dosing side: mean ± SEM, n = 8; for Tumor Volume, Day 0, Dosing side / Tumor Volume, Day 0, Non-dosing side / Tumor Volume, Day 18, Dosing side / TGIvolume, Day 18, Dosing side: BIW×2; for Tumor Volume, Day 18, Non-dosing side / TGIvolume, Day 18, Non-dosing side: BIW×2 on the other side; for TGIvolume, Day 18, Dosing side / TGIvolume, Day 18, Non-dosing side: tumor volume inhibitory rate
Method: In this experimental example, the changes in tumor volume and tumor weight of an MC38 mouse colon cancer transplanted tumor model were measured and recorded after intratumoral injection (i.t.) of compound 6 or compound 8, so as to test the efficacy of each test compound.
Experimental cell strain: Mouse colon cancer MC38 cells (Nanjing Cobioer) were cultured in a 37° C., 5% CO2 incubator (medium: RPMI-1640 (Hyclone) containing 10% fetal bovine serum (Gibco)). Trypsin-EDTA (Hyclone) was used for routine digestion and passage. When the cells were in the exponential phase with a saturation of […], the cells were collected and counted.
Experimental animals: C57BL/6J mice, 6-8 weeks old, female, weighing 18-20 grams. All mice were purchased from Beijing Vital River Laboratory Animal Technology Co., Ltd., and kept in a special pathogen-free (SPF) animal room.
The MC38 cells were resuspended in phosphate buffered saline (PBS) at a density of 5×10^6 cells/mL. 0.1 mL of PBS (containing 5×10^5 MC38 cells) was inoculated subcutaneously at the position of scapula at the right and left back of each mouse. When the average volume of the tumors at the left and right sides reached about 100 mm^3, the mice were randomly grouped according to the volumes of the tumors at the left and right sides.
When the average volume of the subcutaneously transplanted tumors reached about 100 mm^3, the mice were randomly grouped according to the volume of the tumors at the left and right sides, with 8 in each group. Administration was performed on the tumors at the right side via intratumoral injection at an administration frequency of BIW×2 for 2 weeks in total, while no administration was performed on the tumors at the left side. After administration, the volumes of tumors at the left and right sides were measured twice a week, and the death of the animals was observed every day.
The anti-tumor efficacy of the test compound was evaluated by the tumor volume inhibitory rate TGIvolume (%). The tumor volume was measured with a vernier caliper. The tumor volume is calculated according to the formula: V=0.5×a×b^2, wherein “a” and “b” represent the long diameter and short diameter of the tumor, respectively. The tumor volume inhibitory rate TGIvolume (%)=[(1−(the average tumor volume at the end of dosing to a dosing group−the average tumor volume at the start of dosing to the dosing group)/(the average tumor volume at the end of dosing to a vehicle control group−the average tumor volume at the start of dosing to the vehicle control group)]×100%. When the tumor volume at the end of dosing was smaller than the tumor volume at the start of dosing (i.e., tumor regression), TGIvolume (%)=[1−(the average tumor volume at the end of dosing to a dosing group−average the tumor volume at the start of dosing to the dosing group)/the average tumor volume at the start of dosing to the dosing group]×100%.
A statistical analysis was performed based on the tumor volume at the end of the experiment using the Graphpad Prism software. A comparison between the two groups was analyzed by Student's t-test. When P<0.05, it was considered as having a significant difference.

With `COc1cc2sc(C(=O)CCC(=O)O)cc2cc1OCCCOc1cc2sc(C(=O)N(C)CCC(=O)O)cc2cc1OC` [Compound 6, 4-(5-(3-((2-((2-carboxyethyl)(methyl)carbamoyl)-5-methoxybenzo[b]thiophen-6-yl)oxy)propoxy)-6-methoxybenzo[b]thiophen-2-yl)-4-oxobutanoic acid] the “Tumor Volume, Day 0, Dosing side” value was 112.09 ± 11.95 mm^3, the “Tumor Volume, Day 0, Non-dosing side” value was 96.07 ± 10.17 mm^3 and the “Tumor Volume, Day 18, Dosing side” value was 105.10 ± 74.74 mm^3. The “Tumor Volume, Day 18, Non-dosing side” value was 760.69 ± 174.22 mm^3, the “TGIvolume, Day 18, Dosing side” value was 106.24% and the “TGIvolume, Day 18, Non-dosing side” value was 51.09%.
`COc1cc2sc(C(=O)CCC(=O)O)cc2cc1OCCCOc1cc2cc(C(=O)N(C)CCC(=O)O)sc2cc1OC` [Compound 8, 4-(5-(3-((2-((2-carboxyethyl)(methyl)carbamoyl)-6-methoxybenzo[b]thiophen-5-yl)oxy)propoxy)-6-methoxybenzo[b]thiophen-2-yl)-4-oxobutanoic Acid] was tested, and the “Tumor Volume, Day 0, Dosing side” value was 113.24 ± 12.33 mm^3, the “Tumor Volume, Day 0, Non-dosing side” value was 96.60 ± 11.50 mm^3 and the “Tumor Volume, Day 18, Dosing side” value was 0.00 ± 0.00 mm^3. For the same molecule, the “Tumor Volume, Day 18, Non-dosing side” value was 666.08 ± 100.92 mm^3, the “TGIvolume, Day 18, Dosing side” value was 200.00% and the “TGIvolume, Day 18, Non-dosing side” value was 58.09%.
